Assay results reported in patent publication US11802131B2, “Glutarimides for medical treatment” (C4 Therapeutics, Inc., priority 2017, dated 2023).

Target: hCereblon(M1-L442)_hDDB1(M1-H1140) (Homo sapiens (Human), UniProt Q96SW2)
Assay: Fluorescence direct binding protocol (tryptophan fluorescence titration)
Conditions: 20° C., excited at 280 nm, recorded at 340 nm, assay buffer 50 mM Hepes 7.4 200 mM NaCl; read-out: Fluorescence h-Cereblon_DDB1 Mean Kd_EQ
Experimental: Fluorescence Direct Binding Protocol
Determination of the affinities of compounds to protein containing one or more tryptophan is measurable by monitoring the fluorescence emission in direct mode. The measurements depending on the protein available amounts are performed either manually in a cuvette on ISS-PC1 photon counting spectrofluorometer or automatically in well plates on a fluorescence plate reader device. Fluorescence titrations are performed at 20° C. in the chosen binding assay buffer by using a defined constant protein concentration against ligand concentration variations. Small aliquots of known ligand concentration solubilized in DMSO were added and the fluorescence, excited at 280 nm, was recorded at 340 nm. The fluorescence intensity was corrected for protein dilution and for the filter effect (Birdsall et al.^72).
1) Optimization of measurement parameters to minimize protein consumption and to minimize the dilution effect and the DMSO content
2) Titration measurements of the protein against ligand by at least 12 titration steps to obtain a good s-curve fit
3) Repeat the same titration measurements with the ligand alone to enable correction
4) Check the stability of the protein once by titration against DMSO alone
5) Determination of the molar extinction coefficients of the ligand at 280 and 340 nm with help of an UV-spectrophotometer
6) Use Excel template for the correction of the measured raw data
7) Use GraphPad Prism software for the quadratic binding fit and the KD evaluation.

Chain of hCereblon(M1-L442)_hDDB1(M1-H1140) (Q96SW2 whole entry): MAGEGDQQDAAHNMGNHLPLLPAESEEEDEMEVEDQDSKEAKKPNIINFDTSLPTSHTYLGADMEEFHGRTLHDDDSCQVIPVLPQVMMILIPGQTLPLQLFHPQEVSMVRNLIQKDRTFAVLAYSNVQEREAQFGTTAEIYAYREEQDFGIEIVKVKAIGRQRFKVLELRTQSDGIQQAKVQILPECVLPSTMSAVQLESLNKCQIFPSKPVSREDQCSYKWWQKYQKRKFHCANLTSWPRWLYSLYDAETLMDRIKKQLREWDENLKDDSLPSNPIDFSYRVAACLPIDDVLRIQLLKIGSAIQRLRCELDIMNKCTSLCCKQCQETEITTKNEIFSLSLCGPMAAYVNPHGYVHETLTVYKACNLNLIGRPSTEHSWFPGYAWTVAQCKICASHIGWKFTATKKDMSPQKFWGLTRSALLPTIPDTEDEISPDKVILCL
Chain of hCereblon(M1-L442)_hDDB1(M1-H1140) (Q16531 whole entry partner): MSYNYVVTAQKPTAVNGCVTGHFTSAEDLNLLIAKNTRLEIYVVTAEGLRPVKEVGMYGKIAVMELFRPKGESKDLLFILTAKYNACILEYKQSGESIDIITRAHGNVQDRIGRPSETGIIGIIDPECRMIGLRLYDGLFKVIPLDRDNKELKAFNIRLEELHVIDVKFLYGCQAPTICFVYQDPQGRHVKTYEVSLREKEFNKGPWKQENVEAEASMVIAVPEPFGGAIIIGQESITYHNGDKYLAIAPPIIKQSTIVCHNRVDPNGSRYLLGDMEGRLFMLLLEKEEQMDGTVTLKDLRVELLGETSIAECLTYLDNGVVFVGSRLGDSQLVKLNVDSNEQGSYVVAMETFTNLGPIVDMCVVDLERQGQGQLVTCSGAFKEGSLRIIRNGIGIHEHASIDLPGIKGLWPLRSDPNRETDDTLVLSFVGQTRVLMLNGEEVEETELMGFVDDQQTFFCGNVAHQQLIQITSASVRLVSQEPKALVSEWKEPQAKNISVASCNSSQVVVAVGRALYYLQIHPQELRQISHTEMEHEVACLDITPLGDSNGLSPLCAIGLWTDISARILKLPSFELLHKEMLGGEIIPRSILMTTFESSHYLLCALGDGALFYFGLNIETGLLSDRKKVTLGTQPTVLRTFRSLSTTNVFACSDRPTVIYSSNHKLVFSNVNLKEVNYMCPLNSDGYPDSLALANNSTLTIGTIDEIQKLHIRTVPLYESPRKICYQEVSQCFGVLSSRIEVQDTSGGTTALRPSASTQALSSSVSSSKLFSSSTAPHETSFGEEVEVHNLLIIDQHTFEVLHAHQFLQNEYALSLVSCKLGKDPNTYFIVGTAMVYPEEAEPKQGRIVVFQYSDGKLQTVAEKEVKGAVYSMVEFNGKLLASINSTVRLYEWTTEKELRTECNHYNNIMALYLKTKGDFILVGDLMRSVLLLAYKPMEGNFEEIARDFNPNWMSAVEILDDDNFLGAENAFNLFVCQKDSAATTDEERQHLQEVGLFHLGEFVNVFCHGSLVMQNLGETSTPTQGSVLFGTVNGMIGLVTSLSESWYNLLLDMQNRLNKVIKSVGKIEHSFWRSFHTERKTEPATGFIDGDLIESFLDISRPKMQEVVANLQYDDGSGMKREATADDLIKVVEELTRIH

| Compound | Kd |
| --- | --- |
| O=C1CC[C@@H](NC(=O)N2CCCc3cccnc32)C(=O)N1 [Example 64, (R)-N-(2,6-Dioxopiperidin-3-yl)-3,4-dihydro-1,8-naphthyridine-1(2H)-carboxamide] | 641 nM |
| CC(=O)Nc1ccc(CC(=O)N[C@H]2CCC(=O)NC2=O)cc1 [Example 65, (S)-2-(4-Acetamidophenyl)-N-(2,6-dioxopiperidin-3-yl)acetamide] | 23 nM |
| CC(=O)Nc1ccc(CC(=O)N[C@@H]2CCC(=O)NC2=O)cc1 [Example 66, (R)-2-(4-Acetamidophenyl)-N-(2,6-dioxopiperidin-3-yl)acetamide] | 86 nM |
| CC(=O)Nc1cccc(CC(=O)N[C@@H]2CCC(=O)NC2=O)c1 [Example 67, (R)-2-(3-Acetamidophenyl)-N-(2,6-dioxopiperidin-3-yl)acetamide] | 3 nM |
| CC(=O)Nc1cccc(CC(=O)N[C@H]2CCC(=O)NC2=O)c1 [Example 68, (S)-2-(3-Acetamidophenyl)-N-(2,6-dioxopiperidin-3-yl)acetamide] | 60 nM |
| O=C1CC[C@H](NC(=O)Cc2ccc3c(c2)CC(=O)N3)C(=O)N1 [Example 69, (S)-N-(2,6-Dioxopiperidin-3-yl)-2-(2-oxoindolin-5-yl)acetamide] | 15 nM |
| O=C1CC[C@@H](NC(=O)Cc2ccc3c(c2)CC(=O)N3)C(=O)N1 [Example 70, (R)-N-(2,6-Dioxopiperidin-3-yl)-2-(2-oxoindolin-5-yl)acetamide] | 3 nM |
| Cn1nc(C(=O)N[C@H]2CCC(=O)NC2=O)c2c1CCN(C(=O)OC(C)(C)C)C2 [Example 71, tert-Butyl (S)-3-((2,6-dioxopiperidin-3-yl)carbamoyl)-1-methyl-1,4,6,7-tetrahydro-5H-pyrazolo[4,3-c]pyridine-5-carboxylate] | 4 nM |
| Cn1nc(C(=O)N[C@H]2CCC(=O)NC2=O)c2c1CCNC2 [Example 72, (S)-N-(2,6-Dioxopiperidin-3-yl)-1-methyl-4,5,6,7-tetrahydro-1H-pyrazolo[4,3-c]pyridine-3-carboxamide] | 194 nM |
| CN1C(=O)CCC(NC(=O)[C@H]2CCCc3ccccc32)C1=O (stereo partly drawn) [Example 73, (1S)-N-(1-Methyl-2,6-dioxopiperidin-3-yl)-1,2,3,4-tetrahydronaphthalene-1-carboxamide] | 28 nM |
| Cc1sc2c(c1C)C(c1ccc(Cl)cc1)=N[C@@H](CC(=O)NCCCCCC(=O)N1CC[C@H](C(=O)N[C@H]3CCC(=O)NC3=O)c3ccccc31)c1nnc(C)n1-2 [Example A, (4S)-1-[6-[[2-[(9S)-7-(4-Chlorophenyl)-4,5,13-trimethyl-3-thia-1,8,11,12-tetrazatricyclo[8.3.0.02,6]trideca-2(6),4,7,10,12-pentaen-9-yl]acetyl]amino]hexanoyl]-N-[(3S)-2,6-dioxo-3-piperidyl]-3,4-dihydro-2H-quinoline-4-carboxamide] | 10 nM |
| Cc1sc2c(c1C)C(c1ccc(Cl)cc1)=N[C@@H](CC(=O)NCCCCCC(=O)N1CC[C@H](C(=O)N[C@@H]3CCC(=O)NC3=O)c3ccccc31)c1nnc(C)n1-2 [Example B, (4S)-1-[6-[[2-[(9S)-7-(4-Chlorophenyl)-4,5,13-trimethyl-3-thia-1,8,11,12-tetrazatricyclo[8.3.0.02,6]trideca-2(6),4,7,10,12-pentaen-9-yl]acetyl]amino]hexanoyl]-N-[(3R)-2,6-dioxo-3-piperidyl]-3,4-dihydro-2H-quinoline-4-carboxamide] | 37 nM |
| Cc1sc2c(c1C)C(c1ccc(Cl)cc1)=N[C@@H](CC(=O)NCCOCCOCCOCC(=O)N1CC[C@@H](C(=O)N[C@H]3CCC(=O)NC3=O)c3ccccc31)c1nnc(C)n1-2 [Example C, (4R)-1-[2-[2-[2-[2-[[2-[(9S)-7-(4-Chlorophenyl)-4,5,13-trimethyl-3-thia-1,8,11,12-tetrazatricyclo[8.3.0.02,6]trideca-2(6),4,7,10,12-pentaen-9-yl]acetyl]amino]ethoxy]ethoxy]ethoxy]acetyl]-N-[(3S)-2,6-dioxo-3-piperidyl]-3,4-dihydro-2H-quinoline-4-carboxamide] | 8 nM |
